Source: patent US5053431A, “Derivatives of chrysophanol as topoisomerase II inhibitors” (Sloan-Kettering Institute For Cancer Research, priority 1990, dated 1991)
pIC50: −log10 of the molar value. Values after ≈ are worked out from the molar mass of the structure shown. Where two headings read alike, the source gives them in different places.

Experiments:
[1] = tested on: cancer; settings: literature; cited from earlier work
[2] = tested on: peroxidases; settings: literature; cited from earlier work
[3] = tested on: Topo II; test: Heat reversal of protein-linked DNA complex; type: biochemical, human (HL-60); settings: 65 degrees C
Method: (§1) This experiment concerns Topoisomerase II (Topo II)-mediated DNA cleavage activity induced by chrysophanol derivatives. 3-(bis[2-chloroethyl]amino)methyl-1,8-dihydroxy-9,10-anthraquinone (SK-31662) and 3-(2-hydroxyethylamino)methyl-1,8-dihydroxy-9,10-anthraquinone (SK-31694) have antileukemic activity with IC>es of 0.14 and 0.86 uM, respectively. SK-31662 and SK-31694 inhibit kDNA decatenation at 48 and 38 uM, respectively.

[4] = tested on: DNA topoisomerase II; settings: literature; cited from earlier work
[5] = tested on: mouse leukemia L1210 cells; test: Inhibition of L1210 cell growth; type: cell-based
Method: Preliminary biological data for inhibiting cell growth of murine L1210 leukemic cells and human acute promyelocytic leukemia cells (HL-60) during 72 h of exposure to the compounds are given in Table IV. The potencies for inhibiting [^3 H]TdR incorporation into DNA in HL-60 cells during the initial 30-min period are also given in Table IV. It is interesting to note that 1,8-di-O-methyl derivatives are uniformly devoid of activity against L1210 leukemic cells. […] The B/A ratios allow an indirect estimation of whether or not cytotoxicities exerted by these analogues are primarily due to initial inhibition of DNA synthesis. […] Whether these analogues, like m-AMSA, ellipticine, or anthracyclines, act by inhibiting DNA topoisomerase II remains to be explored. […] Our preliminary experiments indicate that the compounds arrest cells in the S and/or G2 phases of the cell cycle (unpublished results).

[6] = tested on: human leukemia HL-60 cells; test: HL-60 cell growth inhibition (72 h); type: cell-based; settings: HL-60, 72 h, read-out: ID50, M [HL-60 cell growth (72 h)] (A)
Method: For cell growth inhibition studies, HL-60 cells […]) were grown in RPMI 1640 media at 37° C. in humidified 5% CO2 for 72 h. Viable cells were counted with the trypan blue exclusion method. The fractional inhibitions at four or five concentrations of compounds (in 0.2% DMSO) were analyzed with a median-effect plot (Chou, T.-C., et al., Adv. Enzyme Regul. 22:27 (1984)) by using a computer program. (Chou, J.; Chou, T.-C. Dose-Effect Analyses with Microcomputer. Quantitation of ID50, LD50, Synergism, Antagonism, Low-dose Risk, Receptor-Binding and Enzyme Kinetics; IBM-PC Series, Elsevier-Biosoft, Elsevier Scientific: Cambridge, U.K., (1986)). The median-effect concentration (ID50) was automatically determined for the x intercept of the median-effect plot. Cell growth in the absence of a compound and in the presence of DMSO was used as a control. DMSO (0.2%) alone inhibited cell growth 3.8±1.2% during the 72-h incubation period.

[7] = tested on: [^3 H]TdR incorporation into DNA in HL-60 cells; test: Inhibition of [3H]TdR incorporation into DNA in HL-60 cells (initial 30 min); type: cell-based, human; settings: for pIC50: HL-60, initial 30 min exposure, read-out: ID50, M (HL-60 TdR into DNA (B)); for B/A: ratio of ID50 for TdR incorporation (B) to ID50 for cell growth (A), HL-60
Method: For precursor incorporation studies, each compound at four to six concentrations (0.2% DMSO) was preincubated with HL-60 cells (2.5×10^6 /Ml) for 15 min prior to the addition of [^3 H-methyl]TdR (1 μCi, 0.15 nmol/mL) and was incubated for 30 min. […] The incorporation of radioactivity in DNA in the absence of an analogue in the presence of DMSO was used as a control.

[8] = tested on: DNA (native and thermally denatured); test: Spectrophotometric study of DNA interaction; type: binding, calf thymus; settings: for interaction with DNA: absorption spectra, native and thermally denatured DNA
Method: Some representative compounds were studied for their ability to interact with nucleic acids in solution by comparison of the electronic spectrum of drug alone with that of the drug in the presence of an excess of nucleic acid. All drugs studied have an absorption band in the visible region, separate from the absorption band of the nucleic acids, and therefore any changes in band intensity and position were indicative of drug chromophore-DNA interaction.
Absorption spectra were measured with an IBM 9410 UV-visible spectrometer interfaced to an HP 9826 computer. Small volumes of the stock drug solutions (2 mg/mL in Me2 SO) were added to 2 mL of buffer (0.01 or 0.1 M NaCl, 5 mM Hepes, pH 7) to obtain a final drug concentration of 5-15 μM, or to the solution of native or thermally denatured DNA (0.2 and 0.1 mM, respectively) in the buffer. After incubation at room temperature for 10 min, the spectra were recorded in the 300-600 nm range (increment 1 nm) and corrected by subtracting the spectrum of the blank which was measured before addition of the drug.

[9] = Stability of compound; type: physicochemical
[10] = tested on: DNA; settings: literature; cited from earlier work
[11] = Solubility in aqueous solutions; type: physicochemical
[12] = tested on: leukemic cells; test: Antileukemic activity (Experiment 3); type: cell-based; settings: read-out: antileukemic activity IC>es
[13] = tested on: Topo II; test: Inhibition of kDNA decatenation; type: biochemical
[14] = tested on: Topo II; test: Mapping of DNA-Topo II cleavage sites (Hind III-digested 3'-labeled DNA, HL-60 nuclear extracts); type: biochemical, human (HL-60); settings: 10 uM
Method: as §1

[15] = tested on: Topo II; test: Topo II cleavable complex formation; type: biochemical, human (HL-60); settings: 3'-labeled DNA and NE of HL-60
Method: as §1

[16] = tested on: leukemia L1210/Cisplatin; test: Activity against Cisplatin-resistant leukemia L1210 in mice; type: in vivo, mouse
Method: At the dosage of 100 mg/kg/day×5 (ip), mice inoculated with Cisplatin resistant leukemia L1210/Cisplatin are cured.

[17] = Mus musculus, L1210, Table I, read-out: ID50 (the source's name)
[18] = Mus musculus, L1210, Table I, read-out: ID50 (μg/mL)
[19] = Mus musculus, Table IV, L1210, 72 h exposure, read-out: ID50, M (L1210 cell growth)

In the case of `Cc1c2cc[n+](C)cc2c(C)c2c1[nH]c1ccc(O)cc12` [9-OH-NME, 2-N-Methyl-9-hydroxyellipticinium], the anticancer activity [1] is listed as “one of the most active drugs among the ellipticine analogues” and the oxidation by peroxidases [2] is listed as “easily oxidized by peroxidases”.

In the case of `COc1cc([C@@H]2c3cc4c(cc3[C@@H](O[C@@H]3O[C@@H]5CO[C@@H](C)O[C@H]5[C@H](O)[C@H]3O)[C@H]3COC(=O)[C@H]23)OCO4)cc(OC)c1O` [VP-16, etoposide, reference compound], the “reversal of protein-linked DNA by heat” value [3] is listed as “reduced during 0.5 min exposure to 65 °C” and the “stabilization of cleavable complex between DNA topoisomerase II and DNA” value (“stabilization” for short) [4] is listed as “stabilize the cleavable complex between DNA topoisomerase II and DNA”.

`O=C1c2cccc(O)c2C(=O)c2c(O)cc(CNCCCl)cc21` [XIa-7, 3-[N-(2-chloroethyl)amino]methyl-1,8-dihydroxy-9,10-anthraquinone] showed an IC50 ([5]; Mus musculus, L1210, read-out: ID50 (μM)) of 7.11 µM, an IC50 ([5]; Mus musculus, L1210, read-out: ID50 (μg/mL)) of 2.37 µg/mL and a pIC50 ([6]; Homo sapiens) of 5.12. The pIC50 ([7]; Homo sapiens, 0.5 h) was 4.41, the B/A [7] was 5.2 and the “reversal of DNA induced changes in absorption spectra by Me2SO” value ([8]; Me2 SO to 1:1 v/v) was “could be reversed by addition of Me2 SO”. For the same compound, the stability [9] was “unstable”.

For `Cc1c2ccncc2c(C)c2c1[nH]c1ccc(O)cc12` [9-hydroxyellipticine], the anticancer activity [1] is listed as “potent anticancer agent”.

In the case of `COc1cccc2c1C(=O)c1c(OC)cc(CNCCCl)cc1C2=O` [IXa-7, 3-[N-(2-chloroethyl)amino]methyl-1,8-dimethoxy-9,10-anthraquinone], the pIC50 ([5]; Mus musculus, L1210, 72 h, read-out: ID50, M (L1210 cell growth)) was 4.59, the pIC50 ([6]; Homo sapiens) was 4.07 and the pIC50 ([7]; Homo sapiens, 0.5 h) was 4.72. The B/A [7] was 0.22 and the stability [9] was “unstable”.

In the case of `COc1c(O)c2c(c3cc(C(=O)N4CCc5c4c(O)c(OC)c4[nH]c(C(=O)N6CC7CC78C6=CC(=O)c6[nH]cc(C)c68)cc54)[nH]c13)CCN2C(N)=O` (stereo not shown) [CC1065], the “DNA binding / alkylation” value [10] is given as “binds to the minor groove of DNA by nonintercalative means and then slowly alkylates the amino group of adenine”.

For `COc1cc(NS(C)(=O)=O)ccc1Nc1c2ccccc2nc2ccccc12` [m-AMSA, 4'-(9-acridinylamino) methanesulfon-m-aniside], the “effect on DNA topoisomerase II reactions” value [4] is given as “inhibits the topoisomerization and catenation reactions of DNA topoisomerase II”.

“3-[(Diethylamino)methyl]-(or 8)-hydroxy-8(or 1)-methoxy-9,10-anthraquinone [Xa-1]” gave a pIC50 ([5]; Table II, antileukemic activity, read-out: L1210: ID50) of 4.92, a pIC50 ([6]; 0.2% DMSO) of 5.28 and a pIC50 [7] of 4.85. For the same compound, the B/A [7] was 2.7 and the “interaction with DNA” value [8] was “interact with both native and thermally denatured DNA but more strongly with native DNA”.

For `COc1cc(O)c2c(c1)C(=O)c1cc(CNCCO)cc(O)c1C2=O` [XIb-6, 3-[N-(2-hydroxyethyl)amino]methyl-1,8-dihydroxy-6-methoxy-9,10-anthraquinone], the pIC50 [5, 17] was 6.72, the IC50 [5, 18] was 0.072 µg/mL and the pIC50 [5, 19] was 6.30. It also gave a pIC50 ([6]; Homo sapiens, 0.2% DMSO) of 5.80, a pIC50 ([7]; Homo sapiens, 0.5 h) of 4.92 and a B/A [7] of 7.5. For the same compound, the “interaction with DNA” value [8] was “interact with both native and thermally denatured DNA but more strongly with native DNA”.

With `Cc1cc(O)c2c(c1)C(=O)c1cc(O)cc(O)c1C2=O` [IIb, emodin] the “solubility in aqueous solutions” value [11] was “low solubility in aqueous solutions”.

In the case of `Cc1cc(O)c2c(c1)C(=O)c1cccc(O)c1C2=O` [IIa, chrysophanol], the “solubility in aqueous solutions” value [11] was “low solubility in aqueous solutions”.

For `COc1cc(O)c2c(c1)C(=O)c1cc(CN(CCO)CCO)cc(O)c1C2=O` [XIb-2, 3-[N,N-bis(2-hydroxyethyl)amino]methyl-1,8-dihydroxy-6-methoxy-9,10-anthraquinone], the pIC50 [5, 17] was 4.86, the IC50 [5, 18] was 5.8 µg/mL and the pIC50 [5, 19] was 4.85. It also gave a pIC50 ([6]; Homo sapiens, 0.2% DMSO) of 5.18, a pIC50 ([7]; Homo sapiens, 0.5 h) of 4.35 and a B/A [7] of 5.2. The “interaction with DNA” value [8] was “interact with both native and thermally denatured DNA but more strongly with native DNA”.

In the case of `O=C1c2cccc(O)c2C(=O)c2c(O)cc(CNCCO)cc21` [XIa-6, 3-(2-hydroxyethylamino)methyl-1,8-dihydroxy-9,10-anthraquinone], the pIC50 [5, 17] was 6.80, the IC50 [5, 18] was 0.066 µg/mL and the pIC50 ([6]; Homo sapiens, 0.2% DMSO) was 6.07. For the same compound, the pIC50 ([7]; Homo sapiens, 0.5 h) was 4.82, the B/A [7] was 17.4 and the pIC50 [12] was 6.07. For the same compound, the “concentration that inhibits kDNA decatenation” value [13] was 38 µM, the “protein-linked DNA breaks, cleavage site pattern” value [14] was “induce protein-linked DNA breaks with a cleavage site pattern similar to m-AMSA” and the “formation of Topo II cleavable complex” value [15] was “stimulate the formation of Topo II cleavable complex”. For the same compound, the “reversal of protein-linked DNA by heat” value [3] was “reduced during 0.5 min exposure to 65 °C”.

For `COc1cccc2c1C(=O)c1c(O)c3c(c(O)c1C2=O)C[C@@](O)(C(=O)CO)C[C@@H]3O[C@H]1C[C@H](N)[C@H](O)[C@H](C)O1` [adriamycin], the “stabilization” value [4] is given as “stabilize the cleavable complex between DNA topoisomerase II and DNA”.

For `O=C1c2cccc(O)c2C(=O)c2c(O)cc(CN(CCCl)CCCl)cc21` [XIa-3, 3-(bis[2-chloroethyl]amino)methyl-1,8-dihydroxy-9,10-anthraquinone], the “ID50” value ([5]; Table I) was 0.058 µg/mL (≈ 0.147 µM), the pIC50 ([5]; Table I, read-out: ID50 (the source's name)) was 6.89 and the pIC50 ([6]; 0.2% DMSO) was 6.74. For the same compound, the pIC50 [7] was 4.16, the B/A [7] was 383 and the “cure of mice inoculated with Cisplatin resistant leukemia L1210/Cisplatin” value ([16]; 100 mg/kg/day×5 (ip)) was “cured”. For the same compound, the “potency against mouse leukemia L1210 made resistant to Cisplatin” value ([16]; mouse, in vivo) was “extremely potent”, the pIC50 [12] was 6.85 and the “concentration that inhibits kDNA decatenation” value [13] was 48 µM. For the same compound, the “protein-linked DNA breaks, cleavage site pattern” value [14] was “induce protein-linked DNA breaks with a cleavage site pattern similar to m-AMSA”, the “formation of Topo II cleavable complex” value [15] was “stimulate the formation of Topo II cleavable complex” and the “reversal of protein-linked DNA by heat” value [3] was “cannot be reversed up to 15 min”.

For `Cc1c2ccncc2c(C)c2c1[nH]c1ccccc12` [ellipticine], the “stabilization” value [4] is listed as “stabilize the cleavable complex between DNA topoisomerase II and DNA”.
